The source of these data is patent US11370816B2, “Histatins and method of use thereof” (THE BOARD OF TRUSTEES OF THE UNIVERSITY OF ILLINOIS, priority 2015, dated 2022).

One experiment concerns Candida albicans. Particulars: Jang, et al. (2008); cited from earlier work.
Experiment [1] concerns human corneal epithelial cells. As to the kind of experiment: Benzalkonium chloride (BAK) injury model, LDH release. Format: cell-based. Particulars: 0.002% BAK. The protocol:
Columns represent the mortality (mean±SD) of cells, total cellular death being 100% (Control).
One particularly useful model of dry eye disease and inflammatory ocular disease is the use of benzalkonium chloride (BAK) to induce cell death, inflammation and injury to ocular surfaces and corneal cells (Tressler, et al. (2011) Ocul. Surf. 9:140-58; Paimela, et al. (2012) Mol. Vis. 18:1189-1196). Briefly, human corneal epithelial cells were cultured under standard conditions. Cells were treated with native HTN5 (50 μM) or synthetic histatin (10 μM) in the presence or absence of 0.002% BAK. The permeability of cellular membranes following the exposures was determined by measuring the amount of released lactate dehydrogenase (LDH) enzyme from the cells. Maximum LDH release of cells was determined by lysing cells, and subsequently measuring the LDH from the culture medium. […] Accordingly, endogenous and synthetic histatins could be used to protect cells from injury, inflammation and cell death and are therefore of use in the treatment of dry eye disease.
In general terms: LDH leaks from cells whose membrane has failed.

For experiment [2] the following is noted: Oudhoff, et al. (2008); cited from earlier work.
The test system of experiment [3] is Human umbilical vein endothelial cells (HUVECs). As to the kind of experiment: Tube formation assay, VEGF-induced angiogenesis. Format: cell-based. Particulars: VEGF 10 ng/mL, peptide 50 μM. The protocol: Tube formation assays were used to assess the anti-angiogenic property of synthetic histatin compared to native HTN1 and HTN2. Human umbilical vein endothelial cells (HUVECs) were suspended in diluted MATRIGEL for an overnight incubation and then subjected to a media change containing VEGF (10 ng/mL) (Goodwin (2007) Microvasc. Res. 74:172-83) alone or VEGF (10 ng/mL) in combination with HTN1, HTN2 or synthetic histatin (50 μM).

A further experiment concerns the target T1, MMP2 (Homo sapiens, UniProt P08253).
T1 sequence (P08253 110-660): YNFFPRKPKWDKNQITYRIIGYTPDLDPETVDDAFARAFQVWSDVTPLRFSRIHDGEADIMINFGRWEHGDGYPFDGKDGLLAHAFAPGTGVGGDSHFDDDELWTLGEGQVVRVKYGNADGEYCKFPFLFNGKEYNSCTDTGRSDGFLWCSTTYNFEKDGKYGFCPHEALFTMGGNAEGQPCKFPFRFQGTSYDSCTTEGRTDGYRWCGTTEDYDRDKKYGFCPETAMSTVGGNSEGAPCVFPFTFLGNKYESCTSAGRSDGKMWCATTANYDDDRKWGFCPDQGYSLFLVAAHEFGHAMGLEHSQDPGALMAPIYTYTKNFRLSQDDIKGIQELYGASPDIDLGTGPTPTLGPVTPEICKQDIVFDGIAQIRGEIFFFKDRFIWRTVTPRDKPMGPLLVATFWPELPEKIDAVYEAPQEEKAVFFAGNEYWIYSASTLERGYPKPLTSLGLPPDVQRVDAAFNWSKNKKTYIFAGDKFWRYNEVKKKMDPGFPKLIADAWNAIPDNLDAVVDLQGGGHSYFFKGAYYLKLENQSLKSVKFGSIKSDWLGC
As to the kind of experiment: Zymography analysis of MMP2 inhibition. The class given is biochemical. Particulars: pro-MMP2 activated with APMA, varying amounts of peptide. The protocol:
FIG. 1 show zymographic analysis of synthetic histatin inhibitory activity. Experiments included pro-MMP2 (100 ng; “−Ve”); activation of Pro-MMP2 with APMA (1 mM; “+Ve”); inclusion of a classic matrix metalloproteinase inhibitor, GM6001 (200 nM; “Inh”); and varying amounts of a synthetic histatin containing three metal binding domains from endogenous HTN5 and a wound healing domain from endogenous HTN1 (“H-1”). The protein ladder is shown on the right.
Zymography analysis of a synthetic histatin containing three metal binding domains from HTN5 and one wound healing domain (i.e., SEQ ID NO:29) was carried out using conventional methods. See, e.g., Thomadaki, et al. (2013) Oral Dis. 19(8):781-8.

Experiment [4] relates to human corneal epithelium cells. The experiment is described as follows: In vitro scratch assay (cell migration, wound closure). The class given is cell-based. Particulars: for Time to Closure: control no closure in 48 hours. The source says: A conventional in vitro scratch assay was used to measure cell migration in the presence of a synthetic histatin containing three metal binding domains from HTN5 and one wound healing domain (i.e., SEQ ID NO:29). A “scratch” was made in a monolayer of human corneal epithelium cells and time lapsed microscopy was used to capture images at the beginning and at regular intervals during cell migration to close the scratch.

The next experiment has as its system human corneal epithelium. The experiment is described as follows: Gene expression changes after synthetic histatin application. The class given is cell-based. Particulars: synthetic histatin treatment. The source says: Pathophysiological analyses of dry eye disease indicate that the critical factors involved in the development of dry eye disease involve inflammatory pathways including Th17/IL-17, I-CAM, IL-8, TNFα/IL-1/IL-6/NFκB, IL-10, MMP9 (and other matrix metalloproteinases) and TLR4/HSP (Stevenson, et al. (2012) Arch. Ophthalmol. 130(1):90-100). In addition, it has been reported that Ephrin A is involved in the development of epitheliopathy, poor wound healing and corneal disease related to elevated sugar levels/diabetic and neuropathic ulcers of the ocular surface. Accordingly, it was determined what effect synthetic histatin application would have on the gene expression in human corneal epithelium. […] Th17/IL-17 pathway is a central and important pathway in dry eye disease (Stevenson, et al. (2012) Arch Ophthalmol. 130(1):90-100).

For experiment [5] the following is noted: Oppenheim, et al. (2012); cited from earlier work.

Starred links: 1 amine or outer side, 2 acyl side, 3 side chain; linkers in the order of their positions; H or OH if unused. Non-standard residues stand in square brackets, D forms with d. No end group written: not given here. (CH2)6 = -(CH2)6- hydrocarbon linking residues, C(CCC[*:2])CC[*:1]; pS = N[C@@H](COP(=O)(O)O)C(=O)O

Turning to AKRHHGYKRKFH [P-113], in the experiment with Candida albicans, the fungicidal activity result is recorded as “exhibits fungicidal activity”.
With “DSHAKRHHGYKRKFHEKHHSHRGY [HTN5, endogenous (native) histatin 5, reference compound]”, the “cell death (released LDH)” value in experiment [1] (50 μM peptide) is on record as “statistically significant reduction in cell death”. Moreover, the “wound closure activity in vitro” value in experiment [2] is “inactivity”.
In the case of “DSHAKRHHGYKRKFHEKHHSHRGYRSNYLYDN [HTN3, endogenous (native) histatin 3]”, the “wound closure activity in vitro” value in experiment [2] is listed as “exhibit wound closure activities in vitro”.
For “DSpHEKRHHGYRRKFHEKHHSHREFPFYGDYGSNYLYDN (D[pS]HEKRHHGYRRKFHEKHHSHREFPFYGDYGSNYLYDN) [HTN1, endogenous (native) histatin 1]”, the “formation of capillary-like structures / inhibition of angiogenesis” value in experiment [3] is “inhibition of angiogenesis”. Also, the “wound closure activity in vitro” value in experiment [2] is recorded as “exhibit wound closure activities in vitro”.
As for “HEKHH-(CH2)6-HEKHH-(CH2)6-HEKHH-(CH2)6-YGDYGSNYLYDN (HEKHH[(CH2)6]HEKHH[(CH2)6]HEKHH[(CH2)6]YGDYGSNYLYDN) [synthetic histatin]”, in the experiment with MMP2, the “inhibition of MMP2 activity” value is on record as “inhibited MMP2 activity in a dose-dependent manner”. The “Time to Closure” value in experiment [4] (1 μM synthetic histatin) is 48 h. Also, the “Time to Closure” value in experiment [4] (10 μM synthetic histatin) stood at 22 h. The “wound healing (reduction in time to wound closure)” value in experiment [4] (scratch in monolayer, time lapsed microscopy) is “notable enhancement of wound healing”. Moreover, the “formation of capillary-like structures / inhibition of angiogenesis” value in experiment [3] is given as “did not form such structures”. Moreover, in the experiment on human corneal epithelium, the “expression of genes related to MMP activity” value was “reduced”, the “expression of several members of the TNFα/IL-1/IL-6/NFKB pathway” value was “significant reduced”, the “genes of the IL-10 pathway (62 genes) affected” value stood at 6 and the “genes of the TLR4/HSP pathway (54 genes) significantly affected” value is given as 5. For the same substance, the “genes of the Th17/IL-17 pathway (44 genes) with significant changes in gene expression” value with human corneal epithelium amounted to 7. In experiment [1] (10 μM peptide), the “cell death (released LDH)” value is “statistically significant reduction in cell death”.
In the case of “RKFHEKHHSHREFPFYGDYGSNYLYDN [HTN2, endogenous (native) histatin 2]”, in experiment [3], the “formation of capillary-like structures / inhibition of angiogenesis” value was “inhibition of angiogenesis”.
In the case of RKFHEKHHSHRGYR [SEQ ID NO:53], the fungicidal activity result in experiment [5] is listed as “exhibit fungicidal activity”.
